Results published in PubChem BioAssay (NCI).
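Results reflect a 48-hour exposure of cells in 96-well plates to compound at five concentrations. TGI marks complete inhibition of growth.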

Legend:
Assay in all cases: DTP human tumour cell line panel, 48 h
[1] = test system: 786-0 renal
[2] = test system: A498 renal
[3] = test system: ACHN renal
[4] = test system: CAKI-1 renal
[5] = test system: CCRF-CEM leukemia
[6] = test system: COLO 205 colon
[7] = test system: DU-145 prostate
[8] = test system: EKVX NSCLC
[9] = test system: HCC-2998 colon
[10] = test system: HCT-116 colon
[11] = test system: HCT-15 colon
[12] = test system: HL-60(TB) leukemia
[13] = test system: HOP-62 NSCLC
[14] = test system: HOP-92 NSCLC
[15] = test system: HT29 colon
[16] = test system: IGROV1 ovarian
[17] = test system: K-562 leukemia
[18] = test system: LOX IMVI melanoma
[19] = test system: M14 melanoma
[20] = test system: MALME-3M melanoma
[21] = test system: MCF7 breast
[22] = test system: MDA-MB-231 breast
[23] = test system: MDA-MB-435
[24] = test system: MDA-N
[25] = test system: MOLT-4 leukemia
[26] = test system: NCI-H23 lung
[27] = test system: NCI-H460 lung
[28] = test system: NCI-H522 lung
[29] = test system: NCI/ADR-RES ovarian
[30] = test system: OVCAR-3 ovarian
[31] = test system: OVCAR-4 ovarian
[32] = test system: OVCAR-5 ovarian
[33] = test system: OVCAR-8 ovarian
[34] = test system: PC-3 prostate
[35] = test system: RPMI-8226 leukemia
[36] = test system: SF-268 CNS
[37] = test system: SF-295 CNS
[38] = test system: SF-539 CNS
[39] = test system: SK-MEL-2 melanoma
[40] = test system: SK-MEL-28 melanoma
[41] = test system: SK-OV-3 ovarian
[42] = test system: SN12C renal
[43] = test system: SNB-19 CNS
[44] = test system: SNB-75 CNS
[45] = test system: SR leukemia
[46] = test system: SW-620 colon
[47] = test system: T-47D breast
[48] = test system: TK-10 renal
[49] = test system: U251 CNS
[50] = test system: UACC-257 melanoma
[51] = test system: UACC-62 melanoma
[52] = test system: UO-31 renal
[53] = test system: A549 NSCLC
[54] = test system: BT-549 breast
[55] = test system: HS 578T breast
[56] = test system: NCI-H226 lung
[57] = test system: RXF 393 renal
[58] = test system: SK-MEL-5 melanoma
[59] = test system: KM12 colon

CC(=O)OCC1OC(O[C@@H]2C[C@H]3C(C)(C)[C@H](OC(C)=O)CC[C@]3(C)[C@H]3CC[C@]4(C)C(=CC[C@H]4[C@@H](C)C[C@@H](O)[C@H](O)C(C)(C)O)[C@@]32C)C(O)C(O)C1O (stereo partly specified) was tested, and the TGI [1] was 29.9 µM, the TGI [2] was 34 µM and the TGI [3] was 30.4 µM. For the same molecule, the TGI [4] was 27.3 µM, the TGI [5] was 35.1 µM and the TGI [6] was 27.7 µM. It also gave a TGI [7] of 32.1 µM, a TGI [8] of 40.2 µM and a TGI [9] of 35.1 µM. It also gave a TGI [10] of 27.5 µM, a TGI [11] of 31.4 µM and a TGI [12] of 33.3 µM. For the same molecule, the TGI [13] was 29.3 µM, the TGI [14] was 30.9 µM and the TGI [15] was 32.5 µM. The TGI [16] was 33.8 µM, the TGI [17] was 37.7 µM and the TGI [18] was 30.2 µM. The TGI [19] was 36.5 µM, the TGI [20] was 31.9 µM and the TGI [21] was 33.2 µM. It also gave a TGI [22] of 31.2 µM, a TGI [23] of 28 µM and a TGI [24] of 32.7 µM. For the same molecule, the TGI [25] was 31.8 µM, the TGI [26] was 35.5 µM and the TGI [27] was 31.2 µM. It also gave a TGI [28] of 5.07 µM, a TGI [29] of over 100 µM and a TGI [30] of 28.7 µM. The TGI [31] was 29.8 µM, the TGI [32] was 27.1 µM and the TGI [33] was 33.4 µM. It also gave a TGI [34] of 30.8 µM, a TGI [35] of 30.2 µM and a TGI [36] of 29.3 µM. It also gave a TGI [37] of 33 µM, a TGI [38] of 29.9 µM and a TGI [39] of 31.1 µM. For the same molecule, the TGI [40] was 29.8 µM, the TGI [41] was 32.5 µM and the TGI [42] was 31.7 µM. The TGI [43] was 29.3 µM, the TGI [44] was 36.5 µM and the TGI [45] was 31.8 µM. The TGI [46] was 32.8 µM, the TGI [47] was 32 µM and the TGI [48] was 32 µM. For the same molecule, the TGI [49] was 25.3 µM, the TGI [50] was 35.1 µM and the TGI [51] was 30.5 µM. It also gave a TGI [52] of 31.9 µM.

Work on OC1CSCCCSCCSCCCSC1 yielded a TGI [1] of over 100 µM, a TGI [2] of over 100 µM and a TGI [53] of over 100 µM. The TGI [3] was over 100 µM, the TGI [54] was over 100 µM and the TGI [4] was over 100 µM. For the same molecule, the TGI [6] was over 100 µM, the TGI [7] was over 100 µM and the TGI [8] was over 100 µM. For the same molecule, the TGI [9] was over 100 µM, the TGI [10] was over 100 µM and the TGI [11] was over 100 µM. For the same molecule, the TGI [13] was over 100 µM, the TGI [14] was over 100 µM and the TGI [55] was over 100 µM. The TGI [15] was over 100 µM, the TGI [16] was over 100 µM and the TGI [17] was over 100 µM. It also gave a TGI [18] of over 100 µM, a TGI [19] of over 100 µM and a TGI [21] of over 100 µM. The TGI [22] was over 100 µM, the TGI [23] was over 100 µM and the TGI [24] was over 100 µM. It also gave a TGI [25] of over 100 µM, a TGI [56] of over 100 µM and a TGI [26] of over 100 µM. For the same molecule, the TGI [27] was over 100 µM, the TGI [28] was over 100 µM and the TGI [30] was over 100 µM. For the same molecule, the TGI [31] was over 100 µM, the TGI [32] was over 100 µM and the TGI [33] was over 100 µM. For the same molecule, the TGI [34] was over 100 µM, the TGI [35] was over 100 µM and the TGI [57] was over 100 µM. It also gave a TGI [36] of over 100 µM, a TGI [37] of over 100 µM and a TGI [38] of over 100 µM. It also gave a TGI [39] of over 100 µM, a TGI [40] of over 100 µM and a TGI [58] of over 100 µM. The TGI [41] was over 100 µM, the TGI [42] was over 100 µM and the TGI [43] was over 100 µM. It also gave a TGI [44] of over 100 µM, a TGI [46] of over 100 µM and a TGI [47] of over 100 µM. It also gave a TGI [48] of over 100 µM, a TGI [49] of over 100 µM and a TGI [50] of over 100 µM. For the same molecule, the TGI [51] was over 100 µM and the TGI [52] was over 100 µM.

With C/C(=N/NC(=S)N(C)CCc1ccccn1)c1cnccn1 the TGI [1] was 6.8 µM, the TGI [2] was over 100 µM and the TGI [53] was 11.5 µM. It also gave a TGI [3] of 3.51 µM, a TGI [54] of 10.2 µM and a TGI [4] of 10.5 µM. For the same molecule, the TGI [5] was over 68.2 µM, the TGI [6] was 21.8 µM and the TGI [7] was over 32 µM. It also gave a TGI [8] of 12.8 µM, a TGI [9] of 33.8 µM and a TGI [10] of 18 µM. For the same molecule, the TGI [11] was 29 µM, the TGI [12] was over 100 µM and the TGI [13] was 9.62 µM. It also gave a TGI [14] of 21.2 µM, a TGI [55] of 53.9 µM and a TGI [15] of 11.9 µM. For the same molecule, the TGI [17] was over 100 µM, the TGI [59] was 19.4 µM and the TGI [19] was 7.37 µM. For the same molecule, the TGI [20] was 5.11 µM, the TGI [21] was 30.6 µM and the TGI [22] was 21.2 µM. For the same molecule, the TGI [23] was 35.7 µM, the TGI [24] was 20.9 µM and the TGI [25] was over 71.1 µM. The TGI [56] was 0.0122 µM, the TGI [26] was 13 µM and the TGI [27] was 13 µM. It also gave a TGI [28] of 20.8 µM, a TGI [30] of 19 µM and a TGI [31] of 5.93 µM. For the same molecule, the TGI [32] was 22 µM, the TGI [33] was 0.385 µM and the TGI [34] was 16.1 µM. The TGI [35] was 26.1 µM, the TGI [57] was 13.9 µM and the TGI [36] was 14.9 µM. For the same molecule, the TGI [37] was 4.65 µM, the TGI [38] was 28 µM and the TGI [39] was 26.9 µM. The TGI [40] was 40.3 µM, the TGI [58] was 17.8 µM and the TGI [41] was 0.947 µM. The TGI [42] was 10 µM, the TGI [43] was 19 µM and the TGI [44] was 18.4 µM. It also gave a TGI [45] of over 100 µM, a TGI [46] of 32.2 µM and a TGI [48] of 14.8 µM. For the same molecule, the TGI [49] was 12.3 µM, the TGI [50] was 34.6 µM and the TGI [52] was 0.272 µM.

C=C1C(=O)OC2/C=C(\C)C(=O)CC3OC(C)(C)OC3(C)CC(OC(=O)/C(C)=C/C)C12 (stereo unspecified) showed a TGI [1] of over 47.9 µM, a TGI [2] of 54.4 µM and a TGI [53] of over 100 µM. For the same molecule, the TGI [3] was 16.6 µM, the TGI [54] was 26.8 µM and the TGI [4] was 10.3 µM. For the same molecule, the TGI [5] was over 21.8 µM, the TGI [6] was over 59.7 µM and the TGI [7] was 45.1 µM. For the same molecule, the TGI [8] was 34.2 µM, the TGI [9] was 34.9 µM and the TGI [10] was over 44.1 µM. It also gave a TGI [11] of 19.8 µM, a TGI [12] of over 23.4 µM and a TGI [13] of over 100 µM. For the same molecule, the TGI [14] was 38.1 µM, the TGI [55] was over 100 µM and the TGI [15] was 37.2 µM. The TGI [16] was 32.3 µM, the TGI [17] was over 60.9 µM and the TGI [59] was 38 µM. It also gave a TGI [18] of 27.3 µM, a TGI [19] of over 70.3 µM and a TGI [20] of 28 µM. It also gave a TGI [21] of over 47.1 µM, a TGI [22] of 58 µM and a TGI [23] of over 68.2 µM. For the same molecule, the TGI [24] was over 80.5 µM, the TGI [25] was 37.2 µM and the TGI [56] was 63.6 µM. The TGI [26] was 57.8 µM, the TGI [27] was 46.2 µM and the TGI [28] was 9.82 µM. It also gave a TGI [30] of over 56.5 µM, a TGI [31] of 41.5 µM and a TGI [32] of 47.2 µM. It also gave a TGI [33] of over 68.9 µM, a TGI [34] of 59 µM and a TGI [35] of over 100 µM. The TGI [57] was 36.7 µM, the TGI [36] was over 61.3 µM and the TGI [37] was 98.2 µM. For the same molecule, the TGI [38] was 49.4 µM, the TGI [39] was 82.8 µM and the TGI [40] was 86.5 µM. The TGI [58] was over 91.2 µM, the TGI [41] was over 100 µM and the TGI [42] was over 59.2 µM. For the same molecule, the TGI [43] was over 100 µM, the TGI [44] was over 72.9 µM and the TGI [46] was 98.7 µM. The TGI [47] was over 64.6 µM, the TGI [48] was 27.9 µM and the TGI [49] was over 75.2 µM. It also gave a TGI [50] of 31.5 µM, a TGI [51] of 27.8 µM and a TGI [52] of 29.3 µM.
